Test results as given in patent US6737383B1, “Herbicidal oxadiazolidines” (priority 1999, dated 2004).

Legend:
cocklebur = experiment: Test B pre/postemergence cocklebur; assay type: in vivo, Xanthium strumarium; conditions: for Cocklebur plant response rating (0 to 10 scale): 0 is no effect
In short: (§1)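 Test chemicals in a non-phytotoxic solvent mixture with surfactant were sprayed preemergence onto planted seeds and postemergence onto plants 2 to 18 cm tall (1- to 4-leaf stage). After twelve to sixteen days in a greenhouse, injury was visually rated against untreated controls from 0 (no effect) to 10 (complete control).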

rape = experiment: Test B pre/postemergence rape; assay type: in vivo, Brassica napus; conditions: for Rape plant response rating (0 to 10 scale): 0 is no effect
In short: as §1

sugar beet = experiment: Test B pre/postemergence sugar beet; assay type: in vivo, Beta vulgaris; conditions: for Sugarbeets plant response rating (0 to 10 scale): 0 is no effect
In short: as §1

bamyardgrass = experiment: Test B flood test barnyardgrass; assay type: in vivo, Echinochloa crus-galli
In short: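 Plants were grown to the 2-leaf stage before treatment with test chemical, then held in a greenhouse for twelve to sixteen days. Injury was visually rated against untreated controls on a 0–10 scale, where 0 is no effect and 10 is complete control.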

[1] = Postemergence, Rate 250 g/ha, scale 0 to 10
[2] = Preemergence, Rate 62 g/ha, scale of 0 to 10 where 0 is no effect and 10 is complete control
[3] = Preemergence, Rate 125 g/ha, scale of 0 to 10 where 0 is no effect and 10 is complete control
[4] = Preemergence, Rate 250 g/ha, scale 0 to 10, 0 is no effect, 10 is complete control
[5] = Preemergence, Rate 500 g/ha, scale 0 to 10, 0 is no effect, 10 is complete control
[6] = Rate 62 g/ha, Postemergence, scale 0 to 10 (0 no effect, 10 complete control)
[7] = Rate 125 g/ha, Postemergence, scale 0 to 10, 0 is no effect, 10 is complete control
[8] = Postemergence, Rate 125 g/ha, scale of 0 to 10 where 0 is no effect and 10 is complete control
[9] = Preemergence, Rate 62 g/ha, scale 0 to 10 (0 no effect, 10 complete control)
[10] = Preemergence, Rate 125 g/ha, 10 is complete control
[11] = Preemergence, Rate 500 g/ha, scale 0 to 10 (0 no effect, 10 complete control)
[12] = Rate 62 g/ha, Postemergence, scale of 0 to 10 where 0 is no effect and 10 is complete control
[13] = Rate 250 g/ha, Postemergence, scale 0 to 10, 0 is no effect, 10 is complete control
[14] = Rate 500 g/ha, Postemergence, scale 0 to 10
[15] = Rate 500 g/ha, listed under Postemergence (flood test species), scale 0 to 10, 0 no effect, 10 complete control
[16] = Postemergence, Rate 62 g/ha, scale 0 to 10, 0 is no effect, 10 is complete control
[17] = Postemergence, Rate 250 g/ha, scale 0 to 10, 0 no effect, 10 complete control
[18] = Preemergence, Rate 125 g/ha, scale 0 to 10 (0 no effect, 10 complete control)
[19] = Rate 125 g/ha, Postemergence, scale 0 to 10, 0 no effect, 10 complete control
[20] = Rate 500 g/ha, Postemergence, scale 0 to 10, 0 no effect, 10 complete control
[21] = Preemergence, Rate 250 g/ha, scale of 0 to 10 where 0 is no effect and 10 is complete control
[22] = Preemergence, Rate 500 g/ha, scale 0 (no effect) to 10 (complete control)
[23] = Preemergence, Rate 500 g/ha, scale of 0 to 10 where 0 is no effect and 10 is complete control
[24] = Rate 125 g/ha, Postemergence, scale 0 to 10

CC(C)N(C(=O)n1oc(=O)n(CC2=NOCC2)c1=O)c1ccc(F)cc1 [Compound 466]
Cocklebur plant response rating (cocklebur; [1]): 0
Cocklebur plant response rating (cocklebur; Postemergence, Rate 500 g/ha, scale of 0 to 10 where 0 is no effect and 10 is complete control): 1
Plant response rating, Cocklebur (cocklebur; [2]): 0
Plant response rating, Cocklebur (cocklebur; [3]): 0
Cocklebur plant response rating (cocklebur; [4]): 0
Cocklebur plant response rating (cocklebur; [5]): 0
Cocklebur plant response rating (cocklebur; [6]): 0
Cocklebur plant response rating (cocklebur; [7]): 0
Rape plant response rating (rape; [1]): 0
Plant response rating, Rape (rape; [2]): 0
Plant response rating, Rape (rape; [3]): 0
Rape plant response rating (rape; [4]): 0
Rape plant response rating (rape; [5]): 3
Rape plant response rating (rape; [6]): 0
Rape plant response rating (rape; [7]): 0
Sugarbeets plant response rating (sugar beet; [1]): 0
Plant response rating, Sugarbeets (sugar beet; [2]): 0
Plant response rating, Sugarbeets (sugar beet; [3]): 0
Sugarbeets plant response rating (sugar beet; [4]): 2
Sugarbeets plant response rating (sugar beet; [5]): 4
Sugarbeets plant response rating (sugar beet; [6]): 0
Sugarbeets plant response rating (sugar beet; [7]): 0
Plant response rating, Barnyardgrass (0 to 10 scale, 0 is no effect, 10 is complete control) (bamyardgrass; Rate 62 g/ha, flood test species, Pre-emergence, visual evaluation after twelve to sixteen days): 0
Barnyardgrass plant response rating (0 to 10 scale, 0 is no effect, 10 is complete control) (bamyardgrass; Rate 125 g/ha, under heading Pre-emergence, flood test species, visual evaluation after twelve to sixteen days): 0
Barnyardgrass plant response rating (bamyardgrass; Rate 250 g/ha, Pre-emergence (flood test species), scale 0 to 10, 0 is no effect, 10 is complete control): 0
Barnyardgrass plant response rating (bamyardgrass; Rate 500 g/ha, Pre-emergence, flood test species, scale 0 to 10 (0 no effect, 10 complete control)): 0

CC(C)N(C(=O)n1oc(=O)n(Cc2ccccc2Cl)c1=O)c1ccc(F)cc1 [Compound 140]
Cocklebur plant response rating (cocklebur; [8]): 0
Cocklebur plant response rating (cocklebur; [9]): 0
Cocklebur plant response rating (0 to 10 scale) (cocklebur; [10]): 0
Cocklebur plant response rating (cocklebur; [4]): 0
Cocklebur plant response rating (cocklebur; [11]): 0
Cocklebur plant response rating (cocklebur; [12]): 0
Plant response rating, Cocklebur (cocklebur; [13]): 3
Cocklebur plant response rating (cocklebur; [14]): 4
Rape plant response rating (rape; [8]): 0
Rape plant response rating (rape; [9]): 0
Rape plant response rating (0 to 10 scale) (rape; [10]): 0
Rape plant response rating (rape; [4]): 0
Rape plant response rating (rape; [11]): 0
Rape plant response rating (rape; [12]): 0
Plant response rating, Rape (rape; [13]): 1
Rape plant response rating (rape; [14]): 2
Sugarbeets plant response rating (sugar beet; [8]): 0
Sugarbeets plant response rating (sugar beet; [9]): 0
Sugarbeets plant response rating (0 to 10 scale) (sugar beet; [10]): 0
Sugarbeets plant response rating (sugar beet; [4]): 0
Sugarbeets plant response rating (sugar beet; [11]): 1
Sugarbeets plant response rating (sugar beet; [12]): 0
Plant response rating, Sugarbeets (sugar beet; [13]): 0
Sugarbeets plant response rating (sugar beet; [14]): 0
Barnyardgrass plant response rating (bamyardgrass; Postemergence (flood test species), Rate 125 g/ha, scale of 0 to 10 where 0 is no effect and 10 is complete control): 0
Barnyardgrass plant response rating (bamyardgrass; Rate 62 g/ha, Postemergence section, flood test species, scale of 0 to 10 where 0 is no effect and 10 is complete control): 0
Plant response rating, Barnyardgrass (bamyardgrass; Rate 250 g/ha, Postemergence (flood test), scale 0 to 10, 0 is no effect, 10 is complete control): 2
Barnyardgrass plant response rating (bamyardgrass; [15]): 8

Cc1cc(C)c(-n2c(=O)on(C(=O)N(c3ccc(F)cc3)C(C)C)c2=O)c(C)c1 [Compound 60]
Cocklebur plant response rating (cocklebur; [16]): 0
Cocklebur plant response rating (cocklebur; [17]): 0
Cocklebur plant response rating (cocklebur; [9]): 0
Plant response rating, Cocklebur (cocklebur; [18]): 0
Cocklebur plant response rating (cocklebur; [19]): 0
Cocklebur plant response rating (cocklebur; [20]): 0
Rape plant response rating (rape; [16]): 0
Rape plant response rating (rape; [17]): 0
Rape plant response rating (rape; [9]): 0
Plant response rating, Rape (rape; [18]): 0
Plant response rating, Rape (rape; [21]): 0
Rape plant response rating (rape; [22]): 0
Rape plant response rating (rape; [19]): 0
Rape plant response rating (rape; [20]): 4
Sugarbeets plant response rating (sugar beet; [16]): 0
Sugarbeets plant response rating (sugar beet; [17]): 0
Sugarbeets plant response rating (sugar beet; [9]): 0
Plant response rating, Sugarbeets (sugar beet; [18]): 0
Plant response rating, Sugarbeets (sugar beet; [21]): 3
Sugarbeets plant response rating (sugar beet; [22]): 5
Sugarbeets plant response rating (sugar beet; [19]): 0
Sugarbeets plant response rating (sugar beet; [20]): 0
Barnyardgrass plant response rating (bamyardgrass; [16]): 0
Barnyardgrass plant response rating (bamyardgrass; Rate 125 g/ha, Postemergence section (flood test species), scale 0 to 10, 0 no effect, 10 complete control): 0
Barnyardgrass plant response rating (bamyardgrass; [15]): 0
Barnyardgrass plant response rating (bamyardgrass; flood test, listed under Postemergence, Rate 250 g/ha, scale 0 to 10, 0 no effect, 10 complete control): 0

CSc1ccc(N(C(=O)n2oc(=O)n(-c3ccccc3C)c2=O)C(C)C)cc1 [Compound 205]
Cocklebur plant response rating (cocklebur; [2]): 0
Cocklebur plant response rating (0 to 10 scale) (cocklebur; [10]): 0
Cocklebur plant response rating (cocklebur; [4]): 0
Plant response rating, Cocklebur (cocklebur; [23]): 0
Cocklebur plant response rating (cocklebur; [12]): 0
Cocklebur plant response rating (cocklebur; [24]): 1
Plant response rating (0 to 10; 0 is no effect, 10 is complete control), Cocklebur (cocklebur; Rate 250 g/ha, Postemergence): 1
Cocklebur plant response rating (cocklebur; [14]): 2
Rape plant response rating (rape; [2]): 0
Rape plant response rating (0 to 10 scale) (rape; [10]): 0
Rape plant response rating (rape; [4]): 0
Plant response rating, Rape (rape; [23]): 0
Rape plant response rating (rape; [12]): 0
Rape plant response rating (rape; [24]): 0
Plant response rating (0 to 10; 0 is no effect, 10 is complete control), Rape (rape; Rate 250 g/ha, Postemergence): 0
Rape plant response rating (rape; [14]): 0
Sugarbeets plant response rating (sugar beet; [2]): 0
Sugarbeets plant response rating (0 to 10 scale) (sugar beet; [10]): 0
Sugarbeets plant response rating (sugar beet; [4]): 0
Plant response rating, Sugarbeets (sugar beet; [23]): 0
Sugarbeets plant response rating (sugar beet; [12]): 0
Sugarbeets plant response rating (sugar beet; [24]): 0
Plant response rating (0 to 10; 0 is no effect, 10 is complete control), Sugarbeets (sugar beet; Rate 250 g/ha, Postemergence): 0
Sugarbeets plant response rating (sugar beet; [14]): 0
Barnyardgrass plant response rating (bamyardgrass; Rate 62 g/ha, headed Pre-emergence (flood test species), scale 0 to 10 (0 no effect, 10 complete control)): 0
Barnyardgrass plant response rating (bamyardgrass; Rate 125 g/ha, Pre-emergence, flood test species, scale 0 to 10 where 0 is no effect and 10 is complete control): 0
Barnyardgrass plant response rating (bamyardgrass; Rate 250 g/ha, Pre-emergence, flood-test species, scale 0 to 10, 0 is no effect, 10 is complete control): 0
Plant response rating, Barnyardgrass (bamyardgrass; Rate 500 g/ha, headed Pre-emergence (flood test species), scale 0 to 10 (0 no effect, 10 complete control)): 0
